Data as given in article doi:10.1101/2025.01.28.635346v1 (bioRxiv, 2025).
Bridge positions count the residues as written; N and C are the ends. Side chains are listed from the residue outwards. Peptide text beside a SMILES is read from it. * marks the point of attachment. Butanoyl(4-(4-I-phenyl)) = O=C(CCCc1ccc(I)cc1)*; PEG2 = NCCOCCOCCC(=O)O

Assays:
[1] = Plasma stability, human plasma; assay type: in vitro ADME
[2] = Hepatocyte stability, cryopreserved mouse hepatocytes; assay type: in vitro ADME
[3] = Plasma protein binding, rapid equilibrium dialysis, human plasma; assay type: in vitro ADME; conditions: for fraction unbound at 4 h, 2 μM: human, plasma, pH 7.4
CHRM1 = target: T1, CHRM1 (Homo sapiens, UniProt P11229); assay: Safetyscan47 GPCR Calcium Flux, Agonist; assay type: cell-based; conditions: for Emax: read-out: Max Response
T1 sequence (P11229 1-460): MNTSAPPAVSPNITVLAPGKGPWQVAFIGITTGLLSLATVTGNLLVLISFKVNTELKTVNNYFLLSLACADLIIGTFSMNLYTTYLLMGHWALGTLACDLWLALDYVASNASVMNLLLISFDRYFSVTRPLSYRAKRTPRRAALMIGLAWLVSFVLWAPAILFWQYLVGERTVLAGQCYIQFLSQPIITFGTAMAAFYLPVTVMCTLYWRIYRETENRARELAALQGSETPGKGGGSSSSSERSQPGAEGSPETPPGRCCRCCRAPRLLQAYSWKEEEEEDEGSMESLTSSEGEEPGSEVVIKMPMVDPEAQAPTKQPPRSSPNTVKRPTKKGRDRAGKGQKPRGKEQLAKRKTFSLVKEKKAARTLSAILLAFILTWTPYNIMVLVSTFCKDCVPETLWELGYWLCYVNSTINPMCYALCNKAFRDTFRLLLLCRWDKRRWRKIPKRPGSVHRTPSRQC

DRD2S = DRD2S (Homo sapiens, UniProt P14416); assay: Safetyscan47 GPCR cAMP, Agonist; assay type: cell-based; conditions: for Emax: read-out: Max Response
HTR1B = HTR1B (Homo sapiens, UniProt P28222); assay: Safetyscan47 GPCR cAMP, Agonist; assay type: cell-based; conditions: for Emax: read-out: Max Response
CHRM2 = target: T2, CHRM2 (Homo sapiens, UniProt P08172); assay: Safetyscan47 GPCR cAMP, Antagonist; assay type: cell-based; conditions: for Emax: read-out: Max Response
T2 sequence (P08172 1-466): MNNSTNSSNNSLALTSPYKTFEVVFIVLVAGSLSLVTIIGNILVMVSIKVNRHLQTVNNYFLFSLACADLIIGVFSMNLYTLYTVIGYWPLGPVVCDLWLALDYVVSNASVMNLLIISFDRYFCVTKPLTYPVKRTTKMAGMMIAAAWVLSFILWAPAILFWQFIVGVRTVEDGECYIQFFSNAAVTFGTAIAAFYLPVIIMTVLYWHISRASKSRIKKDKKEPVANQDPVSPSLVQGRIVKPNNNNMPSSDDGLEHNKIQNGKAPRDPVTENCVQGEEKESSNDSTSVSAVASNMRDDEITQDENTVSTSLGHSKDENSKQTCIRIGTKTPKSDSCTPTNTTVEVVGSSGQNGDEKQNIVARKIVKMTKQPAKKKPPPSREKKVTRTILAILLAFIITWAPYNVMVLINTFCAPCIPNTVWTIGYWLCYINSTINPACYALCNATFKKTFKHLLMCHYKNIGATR

OPRM1 = OPRM1 (Homo sapiens, UniProt P35372); assay: Safetyscan47 GPCR cAMP, Antagonist; assay type: cell-based; conditions: for Emax: OPRM1, read-out: Max Response
nAChR(a4/b2) = nAChR(a4/b2) (Homo sapiens, UniProt P17787+P43681); assay: Safetyscan47 Ion Channel, Blocker; assay type: cell-based; conditions: for Emax: read-out: Max Response
GR = target: T3, GR (Homo sapiens, UniProt P04150); assay: Safetyscan47 NHR Protein Interaction, Agonist; assay type: cell-based; conditions: for Emax: read-out: Max Response
T3 sequence (P04150 1-777): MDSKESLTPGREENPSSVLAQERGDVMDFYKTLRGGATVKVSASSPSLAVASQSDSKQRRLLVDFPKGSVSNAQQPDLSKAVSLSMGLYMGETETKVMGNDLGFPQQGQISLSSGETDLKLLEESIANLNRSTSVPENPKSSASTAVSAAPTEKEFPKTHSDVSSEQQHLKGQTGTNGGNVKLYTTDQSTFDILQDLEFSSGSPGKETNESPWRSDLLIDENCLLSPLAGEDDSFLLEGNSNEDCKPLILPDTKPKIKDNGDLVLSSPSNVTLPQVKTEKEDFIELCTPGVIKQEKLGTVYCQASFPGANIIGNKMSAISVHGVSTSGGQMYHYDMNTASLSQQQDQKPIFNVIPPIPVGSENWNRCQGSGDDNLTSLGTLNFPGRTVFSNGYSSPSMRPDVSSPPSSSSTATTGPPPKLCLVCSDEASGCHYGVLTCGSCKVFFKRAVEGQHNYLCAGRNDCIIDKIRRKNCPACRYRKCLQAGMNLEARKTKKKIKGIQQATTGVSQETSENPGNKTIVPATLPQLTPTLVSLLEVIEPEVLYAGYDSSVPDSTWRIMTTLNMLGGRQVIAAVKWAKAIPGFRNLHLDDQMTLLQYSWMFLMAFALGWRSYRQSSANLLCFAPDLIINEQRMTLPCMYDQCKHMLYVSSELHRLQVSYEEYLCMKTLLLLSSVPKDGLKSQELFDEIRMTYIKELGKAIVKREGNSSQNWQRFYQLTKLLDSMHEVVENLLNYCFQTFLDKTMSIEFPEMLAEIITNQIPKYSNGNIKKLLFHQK

NET = NET (Homo sapiens, UniProt P23975); assay: Safetyscan47 Transporter, Blocker; assay type: cell-based; conditions: for Emax: read-out: Max Response
SERT = SERT (Homo sapiens, UniProt P31645); assay: Safetyscan47 Transporter, Blocker; assay type: cell-based; conditions: for Emax: read-out: Max Response
SERT, sequence (P31645 whole entry): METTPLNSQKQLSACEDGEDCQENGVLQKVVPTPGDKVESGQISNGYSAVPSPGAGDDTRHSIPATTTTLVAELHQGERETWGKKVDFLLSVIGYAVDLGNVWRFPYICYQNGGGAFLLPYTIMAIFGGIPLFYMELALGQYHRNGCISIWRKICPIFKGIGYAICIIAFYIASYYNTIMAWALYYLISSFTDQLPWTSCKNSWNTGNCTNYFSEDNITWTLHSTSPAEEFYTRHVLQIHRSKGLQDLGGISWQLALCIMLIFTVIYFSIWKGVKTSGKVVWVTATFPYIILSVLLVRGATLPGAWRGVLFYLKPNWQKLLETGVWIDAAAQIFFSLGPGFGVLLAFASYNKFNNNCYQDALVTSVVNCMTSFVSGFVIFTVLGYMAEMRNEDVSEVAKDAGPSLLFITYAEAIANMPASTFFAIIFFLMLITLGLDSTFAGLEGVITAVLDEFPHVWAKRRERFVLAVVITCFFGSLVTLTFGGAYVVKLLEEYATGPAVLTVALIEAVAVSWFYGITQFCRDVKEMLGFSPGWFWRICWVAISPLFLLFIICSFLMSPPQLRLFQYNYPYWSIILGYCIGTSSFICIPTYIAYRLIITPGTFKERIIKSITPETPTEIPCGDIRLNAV

OPRM1, sequence (P35372 whole entry): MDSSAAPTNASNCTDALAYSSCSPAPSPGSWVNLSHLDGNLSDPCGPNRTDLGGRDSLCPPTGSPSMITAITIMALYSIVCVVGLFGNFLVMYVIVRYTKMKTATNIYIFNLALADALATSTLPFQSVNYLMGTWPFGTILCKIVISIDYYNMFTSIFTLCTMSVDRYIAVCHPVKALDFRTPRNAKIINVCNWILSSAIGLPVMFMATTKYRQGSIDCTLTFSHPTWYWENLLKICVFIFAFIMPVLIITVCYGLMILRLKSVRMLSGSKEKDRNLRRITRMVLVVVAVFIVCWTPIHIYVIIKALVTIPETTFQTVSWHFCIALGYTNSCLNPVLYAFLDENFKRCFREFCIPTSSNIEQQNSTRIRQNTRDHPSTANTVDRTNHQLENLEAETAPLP
nAChR(a4/b2), sequence (P43681 29-627 limits assumed): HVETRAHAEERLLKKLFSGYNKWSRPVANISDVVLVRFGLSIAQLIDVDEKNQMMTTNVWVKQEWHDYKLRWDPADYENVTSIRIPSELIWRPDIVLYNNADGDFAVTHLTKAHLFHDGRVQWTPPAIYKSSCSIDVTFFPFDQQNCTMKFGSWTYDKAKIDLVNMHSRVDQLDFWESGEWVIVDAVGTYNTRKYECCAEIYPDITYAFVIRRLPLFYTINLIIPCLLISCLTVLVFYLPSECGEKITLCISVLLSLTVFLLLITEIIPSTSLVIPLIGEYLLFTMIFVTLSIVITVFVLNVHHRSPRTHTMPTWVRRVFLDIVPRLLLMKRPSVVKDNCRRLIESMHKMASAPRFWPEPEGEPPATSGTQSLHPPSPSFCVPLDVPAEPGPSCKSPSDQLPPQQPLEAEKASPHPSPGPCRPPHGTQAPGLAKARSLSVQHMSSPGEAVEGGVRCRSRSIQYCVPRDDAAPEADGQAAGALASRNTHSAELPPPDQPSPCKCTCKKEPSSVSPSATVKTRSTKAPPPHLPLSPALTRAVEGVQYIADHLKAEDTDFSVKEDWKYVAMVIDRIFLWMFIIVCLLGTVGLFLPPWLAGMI
nAChR(a4/b2), sequence (P17787 26-502): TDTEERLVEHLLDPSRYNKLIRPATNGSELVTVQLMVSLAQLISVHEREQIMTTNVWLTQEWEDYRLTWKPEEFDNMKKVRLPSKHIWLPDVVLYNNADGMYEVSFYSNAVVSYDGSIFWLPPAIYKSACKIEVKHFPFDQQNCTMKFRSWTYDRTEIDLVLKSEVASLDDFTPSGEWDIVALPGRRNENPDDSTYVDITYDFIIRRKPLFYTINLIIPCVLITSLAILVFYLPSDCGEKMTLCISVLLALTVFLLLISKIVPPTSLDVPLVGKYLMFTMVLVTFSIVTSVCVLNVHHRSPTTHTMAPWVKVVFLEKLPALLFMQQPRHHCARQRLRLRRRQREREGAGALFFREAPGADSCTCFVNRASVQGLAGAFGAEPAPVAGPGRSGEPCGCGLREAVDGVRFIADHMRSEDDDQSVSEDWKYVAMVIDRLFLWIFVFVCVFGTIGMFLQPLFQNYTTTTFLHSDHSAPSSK
NET, sequence (P23975 whole entry): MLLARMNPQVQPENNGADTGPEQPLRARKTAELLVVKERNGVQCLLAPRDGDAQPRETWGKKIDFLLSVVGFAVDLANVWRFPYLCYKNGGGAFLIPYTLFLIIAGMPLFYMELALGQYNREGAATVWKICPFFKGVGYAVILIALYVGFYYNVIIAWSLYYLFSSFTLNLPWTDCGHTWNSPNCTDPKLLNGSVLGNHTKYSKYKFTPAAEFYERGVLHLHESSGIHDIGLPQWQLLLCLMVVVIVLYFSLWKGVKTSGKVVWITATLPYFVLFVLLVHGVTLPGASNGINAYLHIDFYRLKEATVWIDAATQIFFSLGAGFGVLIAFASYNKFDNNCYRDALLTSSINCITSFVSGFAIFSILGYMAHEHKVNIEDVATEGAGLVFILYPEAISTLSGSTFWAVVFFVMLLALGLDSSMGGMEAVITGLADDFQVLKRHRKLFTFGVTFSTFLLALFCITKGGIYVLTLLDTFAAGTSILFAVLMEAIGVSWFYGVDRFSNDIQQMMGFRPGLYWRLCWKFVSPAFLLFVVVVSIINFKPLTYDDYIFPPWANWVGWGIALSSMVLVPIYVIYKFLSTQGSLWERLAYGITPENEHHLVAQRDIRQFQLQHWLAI
HTR1B, sequence (P28222 whole entry): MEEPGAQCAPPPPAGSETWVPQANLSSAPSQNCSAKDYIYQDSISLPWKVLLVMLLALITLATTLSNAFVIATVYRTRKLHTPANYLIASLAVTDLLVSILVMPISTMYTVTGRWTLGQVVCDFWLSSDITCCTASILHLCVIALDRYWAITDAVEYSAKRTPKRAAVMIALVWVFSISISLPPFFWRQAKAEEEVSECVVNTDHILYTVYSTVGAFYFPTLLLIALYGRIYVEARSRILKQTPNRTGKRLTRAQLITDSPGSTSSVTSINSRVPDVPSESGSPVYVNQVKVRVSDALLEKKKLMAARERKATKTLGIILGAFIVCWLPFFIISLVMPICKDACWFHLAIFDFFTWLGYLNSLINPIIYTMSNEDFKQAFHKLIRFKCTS
DRD2S, sequence (P14416 1-414 isoform P14416-2): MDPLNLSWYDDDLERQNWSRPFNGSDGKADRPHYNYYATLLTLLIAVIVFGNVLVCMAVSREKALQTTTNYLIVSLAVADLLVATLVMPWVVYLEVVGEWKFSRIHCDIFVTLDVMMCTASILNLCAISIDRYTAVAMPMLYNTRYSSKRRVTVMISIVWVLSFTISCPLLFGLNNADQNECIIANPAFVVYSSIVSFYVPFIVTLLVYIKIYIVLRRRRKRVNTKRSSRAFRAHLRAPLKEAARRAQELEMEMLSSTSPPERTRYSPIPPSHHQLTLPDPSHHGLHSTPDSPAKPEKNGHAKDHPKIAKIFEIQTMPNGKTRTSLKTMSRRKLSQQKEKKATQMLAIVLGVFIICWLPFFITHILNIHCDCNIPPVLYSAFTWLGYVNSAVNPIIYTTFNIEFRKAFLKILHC

| Structure (SMILES) | remaining at 0.5 h, 2 μM [1] [%] | remaining at 4 h, 2 μM [1] [%] | half-life at 2 μM [2] [h] | remaining at 1 h, 2 μM [2] [%] | remaining at 3 h, 2 μM [2] [%] | fraction unbound at 4 h, 2 μM [3] | EC50 (CHRM1) [µM] | Emax (CHRM1) [%] | EC50 (DRD2S) [µM] | Emax (DRD2S) [%] | EC50 (HTR1B) [µM] | Emax (HTR1B) [%] | IC50 (CHRM2) [µM] | Emax (CHRM2) [%] | IC50 (OPRM1) [µM] | Emax (OPRM1) [%] | IC50 (nAChR(a4/b2)) [µM] | Emax (nAChR(a4/b2)) [%] | EC50 (GR) [µM] | Emax (GR) [%] | further results |
| --- | --- | --- | --- | --- | --- | --- | --- | --- | --- | --- | --- | --- | --- | --- | --- | --- | --- | --- | --- | --- | --- |
| CC[C@H](C)[C@H](NC(=O)[C@H](CC(C)C)NC(=O)[C@H](CC(=O)O)NC(=O)CNC(=O)[C@H](CCCNC(=N)N)NC(=O)[C@@H](NC(=O)[C@H](Cc1ccccc1)NC(=O)[C@H](Cc1ccc(O)cc1)NC(=O)[C@@H]1CCC(=O)NCC(=O)NCC(=O)N[C@@H](CCCNC(=N)N)C(=O)NCC(=O)N[C@@H](Cc2c[nH]cn2)C(=O)N[C@@H](C(C)C)C(=O)N2CCC[C@H]2C(=O)N1)C(C)C)C(=O)N[C@@H](CO)C(=O)N[C@@H](Cc1ccccc1)C(=O)N[C@@H](Cc1ccc(O)cc1)C(=O)N[C@@H](CCCCN)C(=O)O [lassotide 36] (GGRGHVPEYFVRGDLISFYK-OH; lactam N-8) | 91.9 | 93.2 | 3.57 | 98.7 | 56.9 | 0.126 | > 45 | 0.34 | > 45 | 0 | > 45 | 2.61 | > 45 | 0 | > 45 | 0 | > 45 | 2.98 | > 45 | 0 | IC50 (NET): > 45 µM; Emax (NET): 0.35%; IC50 (SERT): > 45 µM; Emax (SERT): 17.5% |
| CC[C@H](C)[C@H](NC(=O)[C@H](CC(C)C)NC(=O)[C@H](CC(=O)O)NC(=O)CNC(=O)[C@H](CCCNC(=N)N)NC(=O)[C@@H](NC(=O)[C@H](Cc1ccccc1)NC(=O)[C@H](Cc1ccc(O)cc1)NC(=O)[C@@H]1CCC(=O)NCC(=O)NCC(=O)N[C@@H](CCCNC(=N)N)C(=O)NCC(=O)N[C@@H](Cc2c[nH]cn2)C(=O)N[C@@H](C(C)C)C(=O)N2CCC[C@H]2C(=O)N1)C(C)C)C(=O)N[C@@H](CO)C(=O)N[C@@H](Cc1ccccc1)C(=O)N[C@@H](Cc1ccc(O)cc1)C(=O)N[C@@H](CCCCNC(=O)CCOCCOCCNC(=O)CCCc1ccc(I)cc1)C(=O)O [lassotide 47] (GGRGHVPEYFVRGDLISFYK([PEG2-Butanoyl(4-(4-I-phenyl))])-OH; lactam N-8) | 95.1 | 92.2 | 2.69 | 87.8 | 46.5 | 0.006 | > 45 | 1.46 | > 45 | 24.1 | > 45 | 22.4 | > 45 | 0 | > 45 | 0 | > 45 | 4.35 | > 45 | 0 | Plasma protein binding, %Recovery ([3]; human plasma, RED, 2 μM, 4 h, 37°C): 101%; IC50 (NET): > 45 µM; Emax (NET): 0%; IC50 (SERT): > 45 µM; Emax (SERT): 22.5% |
